According to US20110166152A1, “HETEROAROMATIC COMPOUNDS AS INHIBITORS OF STEAROYL-COENZYME A DELTA-9 DESATURASE” (priority 2008, published 2011):

Target: T1, human SCD1 (Homo sapiens, UniProt O00767)
T1 construct: made in house; host or cells: baculovirus/Sf9 insect cells
T1 sequence (O00767 1-359): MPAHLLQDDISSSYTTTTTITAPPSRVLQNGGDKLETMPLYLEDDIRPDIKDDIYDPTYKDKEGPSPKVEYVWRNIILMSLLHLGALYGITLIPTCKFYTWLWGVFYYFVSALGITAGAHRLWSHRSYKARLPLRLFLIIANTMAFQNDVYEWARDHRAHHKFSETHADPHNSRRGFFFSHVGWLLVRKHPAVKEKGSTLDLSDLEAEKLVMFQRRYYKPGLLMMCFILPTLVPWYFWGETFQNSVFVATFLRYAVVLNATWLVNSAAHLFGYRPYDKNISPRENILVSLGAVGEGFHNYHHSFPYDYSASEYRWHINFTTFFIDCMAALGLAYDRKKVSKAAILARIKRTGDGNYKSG
Experiment: SCD enzyme activity assay, reconstituted human SCD1 ([3H]-stearoyl-CoA conversion)
Format: biochemical
Settings: read-out: IC50 hSCD-1
Description: The potency of compounds of formula I against the stearoyl-CoA desaturase was determined by measuring the conversion of radiolabeled stearoyl-CoA to oleoyl-CoA using rat liver microsome or human SCD1 following previously published procedures with some modifications (Joshi, et al., J. Lipid Res., 18: 32-36 (1977); Talamo, et al., Anal. Biochem, 29: 300-304 (1969)). Liver microsome was prepared from male Wistar or Sprague Dawley rats on a high carbohydrate diet for 3 days (LabDiet #5803, Purina). The livers were homogenized (1:10 w/v) in a buffer containing 250 mM sucrose, 1 mM EDTA, 5 mM DTT and 50 mM Tris-HCl (pH 7.5). After a 100,000×g centrifugation for 60 min, the liver microsome pellet was suspended in a buffer containing 100 mM sodium phosphate, 20% glycerol, 2 mM DTT, and stored at −78° C. Human SCD1 desaturase system was reconstituted using human SCD1 from a baculovirus/Sf9 expression system, cytochrome B5 and cytochrome B5 reductase. Typically, test compound in 2 μL DMSO was incubated for 15 min at room temperature with 180 μL of the SCD enzyme in a buffer containing 100 mM Tris-HCl (pH 7.5), ATP (5 mM), Coenzyme-A (0.1 mM), Triton X-100 (0.5 mM) and NADH (2 mM). The reaction was initiated by the addition of 20 μL of [^3H]-stearoyl-CoA (final concentration=2 μM, radioactivity concentration=1 μCi/mL). After 10 min, the reaction mixture (80 μL) was mixed with a calcium chloride/charcoal aqueous suspension (100 μL charcoal (10% w/v) plus 25 μL CaCl2 (2N). After centrifugation to precipitate the radioactive fatty acid species, tritiated water released from 9,10-[^3H]-stearoyl-CoA by the SCD enzyme was quantified on a scintillation counter.

Row | SMILES | IC50
1 | O=C(O)c1ccc2nc(-c3cn(Cc4cc(Br)c(Br)c(Br)c4)nn3)sc2c1 | 14 nM
2 | CCOC(=O)Nc1nc2ncc(-c3cn(Cc4cc(Br)c(Br)c(Br)c4)nn3)nc2s1 | 16 nM
3 | Oc1cnc2nc(-c3cn(Cc4cc(Cl)c(Cl)c(Cl)c4)nn3)sc2n1 | 48 nM
4 | O=C(O)CNc1nc2cnc(-c3cn(Cc4cc(Cl)c(Cl)c(Cl)c4)nn3)nc2s1 | 31 nM
5 | OCc1ccn2cc(-c3cn(Cc4cc(Cl)c(Cl)c(Cl)c4)nn3)nc2c1 | 39 nM
